Experimental data published in patent publication US8178688B2, “Benzamidine derivatives, process for the preparation thereof and pharmaceutical composition comprising the same” (Dong Wha Pharmaceutical Co., Ltd., priority 2004, dated 2012).
Read-outs that look alike come from different tables or passages of the source. Marks after values point to notes of the source that are not given here.

Tests used:
[1] = tested on: osteoclast differentiation; experiment: Inhibitory effects on osteoclast differentiation (co-culture of bone marrow cells with osteoblast, TRAP staining); type: cell-based, mice; conditions: co-culture of bone marrow cells and osteoblast, 7 days, TRAP-positive osteoclasts versus controls; for inhibition at 1 µM: Mus musculus, Osteoclast, 168 h, read-out: % inhibitory activity on osteoclastogenesis
In short: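 Percent inhibition versus control is based on microscope counts of TRAP-positive osteoclasts (3 or more nuclei) after 7 days of compound exposure. Cultures paired ddY mouse marrow cells with ICR calvarial osteoblasts, driven by dexamethasone 10^−7M plus vitamin D3 10^−8M, with medium and compound changed every 2–3 days.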

osteoblast = experiment: Effect on bone formation (osteoblast nodule mineralization, Alizarin red S); type: cell-based, ICR mice; conditions: calvarial osteoblast in osteogenic differentiation medium
Protocol: The osteoblast, treated in this experiment, was prepared from the osteoblast as prepared in the above.
The osteoblast, isolated from sequential enzymatic treatment of calvariae from neonated ICR mice, was cultured in α-MEM medium containing 10% FBS for 4˜5 days. The osteoblast was also cultured for 24 hr after seeding the cells on a 12 well plate (10^5 cell/well), and medium was exchanged with the osteogenic differentiation medium containing 10 mM β-glycerophosphate and 50 μg/ml ascorbic acid.
The test substances at the concentration of 0.1 uM and 0.1 nM were added to the above medium for evaluating the effect promoting bone formation. The differentiation medium containing the test substances was exchanged every 3 or 4 days for 14 to 21 days until confirming the nodule mineralization.
The cell was rinsed twice with distilled water, and fixed by the 10% formalin solutions for 30 minutes. Alizarin red S and Von-kossa Solution were treated on the plate for measuring deposited calcium and phosphate in cell matrix, and the activity of the test substances on the bone formation was analyzed by determining stained area.
Additionally, for the purpose of estimating quantitative Arizarin red S in cell matrix, stained Arizarin red S was extracted by treating 10 mM sodium phosphate solution (pH 7.0), containing 10% cetylpyridinium chloride, for 15˜30 minutes in the shaking incubator, and then the amount of the deposited calcium was estimated by calculating the absorbance of the extracted Arizarin red S at 564 nm. […]

[2] = tested on: rat models subjected to rib fracture; experiment: Effect of promoting fracture healing in rib fracture-induced rat model (callus volume, callus osteoid volume); type: in vivo, SD rats
Protocol: The benzamidine compounds were assayed for therapeutic effect on bone fracture in rat models subjected to rib fracture. Benzamidine derivates are dosed from 2 days after operation for 2 weeks, and the changes on the volume and histology of callus were observed.
A total of 54 SD rats (8 weeks old upon receipt, Jung Ang Lab. Animal Co., Korea) were used. While being housed at a density of three to a plastic cage, the experimental animals were kept in a breeding room under controlled temperature (20-25° C.) and humidity (30-35%). Under light-dark cycles of 12 hours, the rats were allowed to have free access to feedstuff and tap water.
200 mg of benzamidine compounds (Methansulfonic acid or Hydrochloride) were completely dissolved in 5 ml of sterilized distilled water. The benzamidine derivatives in the solutions was orally administered at doses of 200 mg per kg of body weight once a day for 2 weeks from day 2 of the surgery.
8th and 9th rib of each animal was exposed by general operation under ketamine HCl and xylazine HCl anesthesia, and the exposed ribs were crossly dissected using surgical scissors. After rib-fracture, surgical wounds were closed with general skin suture.
8th and 9th ribs of each animal were separated at sacrifice and then the long axis and short axis of callus were calculated as mm units. The volume of callus was calculated as following Equation 2. Callus volume(mm^3)=(a×b^2)/2 Equation 2 • a: long diameter of bony callus • b: short diameter of bony callus
The 8th rib including fracture sites of each rat was separated and fixed in 10% neutral buffered formalin, and then decalcified in decalcifying solution (24.4% formic acid, and 0.5N sodium hydroxide) for 5 days (mixed decalcifying solution was exchanges once a day for 5 days). After decalcification, the rib was embedded in paraffin, sectioned (3˜4 μm) and stained with hematoxylin-eosin or Masson's trichrome for composition of callus observation.
Osteloid volume (OV/callus) in callus regions of prepared histological specimens were detected as % levels using automated image analysis (analySIS Image Processing; SIS, Germany) under microscopy.

[3] = tested on: mouse models of ovalbumin-induced asthma; experiment: Therapeutic effect in mouse model of asthma induced with ovalbumin (lung weight, total leukocytes in blood and BALF); type: in vivo, C57BL/6 mice
Protocol: The benzamidine compounds were assated for therapeutic effect on allergic inflammation in mouse models of ovalbumin-induced asthma. Starting on the day of immunization the benzamidine compounds were dosed for 17 consecutive days. The experimental animals were re-exposed to ovalbumin 14 days after the sensitization and then sacrificed 3 days after the re-exposure. Changes in lung weight, cellular components of peripheral blood and bronchoalveolar lavage fluid, and lung histopathology were observed.
A total of 110 female C57BL/6 mice (7-week-old, SLC, Japan) were adapted to a laboratory environment for 6 days before being used in earnest experiments. While being housed at a densirt of five in a plastic cage, the experimental animals were breed in a breeding room with controlled temperature (20-25° C.) and humidity (30-35%). Under light-dark cycles of 12 hours, mice were allowed to have free access to feedstuff and tap water. While asthma was induced in 100 mice by ovalbumin, 10 mice were used as a non-treated group.
200 mg of benzamidine compounds (Methansulfonic acid or Hydrochloride) were completely dissolved in 5 ml of sterilized distilled water. The benzamidine compound in the solutions was orally administered at doses of 200 mg per kg of body weight once a day from the day of the sensitization with ovalbumin. The control group was administered with equal volumes of sterilized distilled water in the same manner.
A solution of 200 μg of ovalbumin (Grade VI; Sigma, st. Louis, Mo., USA) and 180 mg of aluminium hydroxide (Al(OH)3, dried powder gel; Aldrich, Milwaukee, USA) in 4 ml of physiological saline was allowed to stand at 4° C. overnight and was administered to the experimental animals (200 μl, abdominal injection) for sensitization. As for the non-treated group, a solution of only aluminium hydroxide in saline was injected. 15 days after sensitization, a 1.5% ovalbumin solution was sprayed in air using a nebulizer, followed by exposing the experimental animals to the spray for 10 min to induce asthma therein. The non-treated group was exposed only to saline in the same manner. All the experimental animals were sacrificed 3 days after the exposure.
On the final day of experiment, the lungs were separated form adjacent organs. The removed lungs were weight among individual animals, the relative weight of the lungs was calculated as a percentage of body weight using the following Equation 3. Relative weight of Lung(%)=(Absolute lung weight/Body weight)×100 Equation 3
On the final day of experiment, all the experimental animals were etherized and underwent laparotomy to expose the abdominal vena cava, from which 1 ml of blood was the taken. Using a hemocytometer, a blood sample was measured for total leukocyte counts in a ×10^3/1 mm^3 units.
On the final day of experiment, secretions present in bronchi and alveola were examined for cyrological constitution. After veing etherized, the experimental animals were operated to open the cervical region and the thorax. The jugular vein was allowed to bleed, followed by endotracheal intubation. 3 ml of phosphate buffered saline was injected twice through the tube and the thorax was massaged for 30 sec to obtain cell suspension from the lungs. Using a hemocytometer, a […] was measured for total leukocyte counts in a ×10^5/1 ml units.

ovariectomized ddY mouse = experiment: Therapeutic effect in the ovariectomized osteoporetic mouse model (trabecular bone volume of the femur); type: in vivo, ddY mice; conditions: 50 mg/kg/day oral gavage for 4 weeks from 4 weeks after ovariectomy, salts (methansulfonic acid or HCl)
Protocol: The therapeutic effects of each benzamidine derivates were evaluated on the ovariectomized ddY mouse. Benzamidine derivates were dosed from 4 weeks after operation for 4 weeks and the changes on the trabecular bone volume (TBV) of the femur were observed via histomorphometry.
Female ddY mice (6-wk old upon receipt, SLC, Japan) were used after acclimatization for 7 days. Animals were allocated 5 per polycarbonate cage in a temperature (20-25° C.) and humidity (30-35%) controlled room. Light:dark cycle was 12 hr:12 hr and feed (Samyang, Korea) and water were supplied free to access.
Salts of benzamidine derivates (Methansulfonic acid or HCl) were used for the test substances of this invention. Test substances are dissolved and/or suspended in injectable distilled water and administered at a dosage volume of 10 ml/kg by oral gavage. All test substances are dosed from 4 weeks after operation for 4 weeks at 50 mg/kg/day.
To induce estrogen-deficient osteoporosis, bilateral ovaries are removed and then closed by routine methods. Operation was conduct under Ketamine hydrochloride and xylazine hydrochloride anesthesia.
The left femur of each mouse were separated at sacrifice, and fixed in 10% neutral buffered formalin (NBF), then decalcified in decalcifying solution (24.4% formic acid, and 0.5N sodium hydroxide) for 5 days (mixed decalcifying solution was exchanges once a day for 5 days). After the dexalcification, the femur was embedded in paraffin, sectioned (3˜4 μm) and stained with hematoxylin-eosin stain.
TBV was calculated using automated image analysis (analySIS Image Processing; SIS, Germany) under magnification of ×200 in the uniform area of trochlea epiphyseal regions (growth plate regions were excluded) of prepared histological specimens. TBV was calculated as percentage (%) levels.
The changes of TBV compared to that of vehicle control are calculated as following Equation 1 to help the understanding of the efficacy of test substances. Percentage changes=[((TBV of a−TBV of b)/TBV of b)×100] Equation 1

| SMILES | melting point | inhibition at 1 µM ([1]; 1 μm) | bone forming activity (%) (osteoblast; 0.1 nM) | bone forming activity (%) (osteoblast; 0.1 μM) | Changes on callus volume (mm^3) ([2]; 200 mg/kg oral once a day for 2 weeks from day 2 of surgery, 8th and 9th ribs, vehicle control 37.22 ± 8.23) | Changes on callus osteoid volume (OV/callus, %) ([2]; 200 mg/kg oral once a day for 2 weeks, 8th rib, vehicle control 35.88 ± 5.06) | Changes on the lung weight, Absolute ([3]; 200 mg/kg oral once a day from sensitization, vehicle control 0.134 ± 0.012, sham 0.110 ± 0.009) | Changes on the lung weight, Relative (%) ([3]; 200 mg/kg oral once a day, % of body weight, vehicle control 0.780 ± 0.103, sham 0.694 ± 0.049) | inhibition at 1 µM ([1]; 1 m) | Changes on TBV (% changes vs vehicle control) (ovariectomized ddY mouse) | % inhibitory activity on osteoclastogenesis [1] |
| --- | --- | --- | --- | --- | --- | --- | --- | --- | --- | --- | --- |
| N=C(NO)c1ccc(OCCCCCOc2ccc(-c3csc(-c4cccnc4)n3)cc2)cc1 [Example 7, N-hydroxy-4-(5-[4-(2-pyridin-3-yl-1,3-thiazol-4-yl)phenoxy]pentoxy)-benzamidine] | 149 to 154 °C | 94.5% | 1.24% | 9.61% | – | – | – | – | – | – | – |
| CNc1nc(-c2ccc(OCCCCCOc3ccc(C(=N)NO)cc3)cc2)c(CCCl)s1 [Example 115, N-hydroxy-4-(5-[4-(5-(2-chloroethyl)-2-methylamino-1,3-thiazol-4-yl)phenoxy]pentoxy)-benzamidine] | – | – | – | – | 24.06 ± 9.64* mm^3 | 41.94 ± 6.33% | 0.114 ± 0.009 g | 0.705 ± 0.046% | 96% | – | – |
| CCN(CCN1CCOCC1)c1nc(-c2ccc(OCCCCCOc3ccc(C(=N)NO)cc3)cc2)c(C)s1 [Example 124, N-hydroxy-4-(5-[4-(2-(ethyl-1-(2-morpholinoethyl)-amino)-5-methyl-1,3-thiazol-4-yl)phenoxy]pentoxy)-benzamidine] | – | – | 6.44% | 12.9% | – | – | – | – | – | 72.82% | 87.9% |
